Results on two compounds are retold here after patent publication US20210299150A1, “AP39 IMPACT ON MITOCHONDRIA, METABOLISM, GENE TRANSCRIPTION REGULATION, CARDIOTOXICITY PROTECTION AND CANCER TREATMENT” (priority 2020, published 2021).

Data set [1] relates to H9C2 cells. Put plainly: Mitochondrial H2S levels (AzMAC) and morphology (mitotracker Red) in H9C2 cells. The data set is classed as cell-based, Rat. As to conditions: H9C2, single agent vs control. The source says: Note that white arrow heads and yellow arrows compare and contrast no-H2S: fusion and H2S-presence: fission scenarios in the same image AP39 treatment lane.
Mitochondrial fission was correlated with H2S levels. To investigate the impact of Dox on mitochondrial biogenesis and mitochondrial H2S levels, H9C2 cells were used in combination with H2S sensitive dye AzMAC and mitotracker Red dye as reported previously^8. […] Further, H2S levels (yellow arrows) highly correlated with a dotted appearance of mitochondria, implying that H2S causes mitochondrial fission, which is a prerequisite for eliminating damaged mitochondria^49.

Data set [2] deals with hiPSC-CMs. The experiment in a line: DIC in hiPSC-CMs (Annexin V, MitoSox Red). The data set is classed as cell-based, human.
For data set [3] the following is noted: cited from earlier work.
The nature of data set [4]: 13C-glucose isotope tracing and GC-MS metabolite quantification. The data set is classed as cell-based. The protocol: Stable isotope (13C glucose) tracer studies. Heatmap.
To this end, 13C-glucose flux/isotope tracing and quantified metabolites through GC-MS were examined at 16 hrs and 24 hrs after the treatments. Glucose, glutamine and lactate were also measured in supernatants at these time points. […] With the exception of glycolytic metabolites, the remaining metabolic pathways (poor labeling) were non-operational after Dox treatment (FIG. 10A).
When considered AP39-mediated activation of AMPK, H2S is selectively halting energy consuming anabolic pathways, such as protein synthesis (also, lipid, AMPK inhibits […], a rate limiting lipid synthesizing enzyme, FIGS. 7A and B), as observed before^41, thus leading to accumulation of amino acids and is enhancing TCA cycle through AMPK activation. The net result is better energy management with AP39/H2S treatment.

In data set [5] the test system is SK-N-BE(2) and SK-N-BE(1) cell lines. Particulars: previous study; cited from earlier work.
Data set [6] has as its system H9C2 cells. Put plainly: Mitochondrial ROS, MitoSox Red, H9C2. It is filed as cell-based, Rat. Particulars: H9C2, Dox alone. The protocol:
AP39 treatment also ameliorated Dox toxicity in a model of Rat cardiomyoblast cell line, H9C2. […] There was a narrow window of protection, as 30 μM and 50 μm doses were not as strong as the 40 μM dose (FIGS. 5A and B) in conferring protection. […] Note that Dox caused an apoptotic phenotype in correlation with ROS levels (FIG. 5F, Dox lane). This in vitro AP39 protection is modest when compared to the in vivo scenario. This difference may be due to rapid clearance of toxic metabolites (for instance, higher lactate production, FIG. 10D) and better oxygen supply (AP39 stimulated OCR, FIG. 7C) in vivo and lack of such sophistication in vitro.

In data set [7] the test system is Myc/Max-regulated transcripts. The experiment in a line: RNAseq analysis in H9C2 cell line. As to conditions: H9C2, Dox alone. The data set is classed as cell-based, Rat. How it is done: The coverage among groups are indicated.
Next, to interrogate mechanisms of AP39 protection against DIC, RNAseq analysis was performed. There was sufficient coverage of the whole transcriptome among the groups (FIG. 8A).

Data set [8] has as its system SK-N-BE(2) neuroblastoma cell line. Put plainly: Cell viability (images, MTT) of SK-N-BE(2) neuroblastoma cell line. It is filed as cell-based, human. The protocol: (§1) Methods for cell viability: Cells were plated in 96 wells/6 wells cell culture plates. After 24 hrs of plating, the treatments (added in the growth medium) were conducted. The following assays were performed after 24 hrs of the treatments (day 2). (FIGS. 15A, 17-20, 24-27)
(§2) MTT assay methods. For the MTT assay, […] of 5 mg/ml MTT-tetrazolium salts in PBS was added to each well containing the growth medium. After 3 hours of incubation, the medium was removed and the formazan crystals were dissolved by adding DMSO. The absorption of the formazan solution was measured using a spectrophotometer at a wavelength of 570 nm. FIGS. 15B, 21-22.
The SK-N-BE(2) neuroblastoma cell line was exposed to control, AP39 (AP) at 40 or 60 μM, Doxorubicin at 2.5 or 20 μM, thiolactate at 10 mM, AP39 and Doxorubicin, AP39 and thiolactate, or Doxorubicin and Thiolactate. […] FIGS. 17, 21, 24-25.

Data set [9] concerns A549 lung cancer cells. Put plainly: Cell viability of A549 lung cancer cells. The data set is classed as cell-based. How it is done: as §1, §2
A549 lung cancer cells were exposed to control, AP39 (AP) at 40 or 60 μM, Doxorubicin at 2.5 or 20 μM, thiolactate at 10 mM, AP39 and Doxorubicin, AP39 and thiolactate, or Doxorubicin and Thiolactate. […] FIGS. 19 and 21.

Data set [10] deals with 786-O cells renal cancer cells. Put plainly: Cell viability of 786-O renal cancer cells. The data set is classed as cell-based. The protocol: as §1, §2
786-O cells renal cancer cells were exposed to control, AP39 (AP) at 40 or 60 μM, Doxorubicin at 2.5 or 20 μM, thiolactate at 10 mM, AP39 and Doxorubicin, AP39 and thiolactate, or Doxorubicin and Thiolactate. […] FIGS. 18 and 21.

The subject of data set [11] is MCF7 breast cancer cells. The experiment in a line: Cell viability (MTT, crystal violet) of MCF7 breast cancer cells. The data set is classed as cell-based. How it is done: as §1, §2
Crystal Violet (CV) assay. For the CV Staining assay, cells were stained with 0.5% crystal violet in 30% ethanol for 10 minutes at room temperature after removal of the medium. The cells were lysed in a 1% SDS (sodium dodecyl sulfate) solution. The absorbance of the solution was measured using a spectrophotometer at a wavelength of 595 nm. FIG. 27.
MCF7 breast cancer cells were exposed to control, AP39 (AP) at 40 or 60 μM, Doxorubicin at 2.5 or 20 μM, thiolactate at 10 mM, AP39 and Doxorubicin, AP39 and thiolactate, or Doxorubicin and Thiolactate. […] FIGS. 26-27.

In data set [12] the test system is H1299 lung cancer cells. Put plainly: Cell viability of H1299 lung cancer cells. The data set is classed as cell-based. How it is done:
as §1, §2
H1299 lung cancer cells were exposed to control, AP39 (AP) at 40 or 60 μM, Doxorubicin at 2.5 or 20 μM, thiolactate at 10 mM, AP39 and Doxorubicin, AP39 and thiolactate, or Doxorubicin and Thiolactate. […] FIGS. 20-22.

The mark [13] stands for this setting: AP39 40 or 60 μM, thiolactate 10 mM, 24 hrs.
Where [14] appears, read: combination with Doxorubicin 2.5 μM.

For `COc1cccc2c1C(=O)c1c(O)c3c(c(O)c1C2=O)C[C@@](O)(C(=O)CO)C[C@@H]3O[C@H]1C[C@H](N)[C@H](O)[C@H](C)O1` [Dox, Doxorubicin], in [1], the “mitochondrial H2S levels (AzMAC)” value is recorded as “significantly reduced mitochondrial H2S production” and the “mitochondrial morphology (fission / fusion)” value is given as “mitochondrial fusion”. Further, in [2] (2.5 μM Dox, donor, data not showed), the “DIC in hiPSC-CMs at lower dose of Dox” value is “exhibited resistance to DIC”. Also, the “cell death in hiPSC-CMs” value in data set [2] (7.5 μM Dox, 48 hrs) is “significant cell death”. In [3] (after Dox treatment), the “late cardiac dysfunction incidence” value is recorded as 16% and the sub-clinical disease rate result was “over 50%”. For the same compound, the “Cumulative left ventricular systolic dysfunction (LVSD) incidence rate” value in [3] (within 18 months of Dox treatment) is recorded as 12%. Further, in data set [4] (16 hrs and 24 hrs), the “Serine and glycine 13C labeling” value was “highly labeled”. Also, the “abundance of most metabolites (GC-MS)” value in data set [4] (24 hrs of Dox treatment) is “present in abundant amounts”. In addition, the “IC90 for SK-N-BE(2) relative to IC90 for SK-N-BE(1)” value in data set [5] was 9230 times. Moreover, the “mitochondrial ROS levels” value in [6] is reported as “elevating damaging ROS levels”. In addition, the Myc transcription entry in data set [7] is listed as “attenuated Myc transcription”. For the same compound, in data set [8] (AP39 used along with Dox), the “effective Dox dose” value stood at 2.5 µM. Also, in data set [8] (Dox alone, 24 hrs), the “IC70 of Dox” value turned out to be 20 µM.

For `CC(S)C(=O)O` (stereo not drawn) [thiolactate, Thiolactate], the “cell killing, agent alone” value was “able to kill lung cancer cells” in [9] (setting [13]); “able to kill renal cancer cells” in data set [10] (setting [13]); “able to kill breast cancer cells” in data set [11] (setting [13]); “able to kill lung cancer cells” in data set [12] (setting [13]); “able to kill SK-N-BE(2) cells” in data set [8] (setting [13]). The “potency of low doses of Doxorubicin” value in data set [9] (setting [14]), in [10] (setting [14]), in data set [11] (setting [14]), in [12] (setting [14]) and in data set [8] (setting [14]) was “able to increase the potency of low doses of Doxorubicin” in each case.
